The source of these data is patent US6262084A, “Compounds that inhibit the binding of integrins to their receptors” (Texas Biotechnology Corporation, priority 1999, dated 2001).

The inhibition is the percentage by which the read-out fell short of the control. What is called pIC50 is the IC50 on a negative log10 scale, so that one unit is a factor of ten.

This assay addresses T1, α4β1 integrin (Homo sapiens, UniProt P05556+P13612).
T1 construct: Ramos cells fluorescently labeled with calcein; endogenous in cells; host or cells: Ramos cells
The experiment in a line: Inhibition of adhesion of calcein-labeled Ramos cells to CS1 (fibronectin) peptide-conjugated ovalbumin. The format is cell-based. The following applies: Table 1; for inhibition at 100 µM: Ramos, compound at a concentration of 100 μM, read-out: % A (percent inhibition of cell adhesion); for pIC50: dose required to give 50% inhibition, Ramos cell adhesion to CS1-ovalbumin, 30 minutes at 37° C. How it is done: The ability of compounds of the present invention to inhibit binding is described in detail hereinafter in the Examples by a procedure in which a 26-amino acid peptide containing the CS1 sequence of fibroncctin with an N-terminal Cys was coupled to maleimide activated ovalbumin. Ovalbumin and CS1 conjugated ovalbumin were coated onto 96-well polystyrene plates at 5 μg/ml in TBS (50 mM Tris, pH 7.5; 150 mM NaCl) at 4° C. for 16 hours. The plates were washed three times with TBS and blocked with TBS containing 3% BSA at room temperature for 4 hours. Blocked plates were washed three times in binding buffer (TBS; 1 mM MgCl2; 1 mM CaCl2; 1 mM MnCl2) prior to assay. Ramos cells fluorescently labeled with calcein AMC-3099 were resuspended in binding buffer (10^7 cells/ml) and diluted 1:2 with same buffer with or without compound. The cells were added immediately to the wells (2.5×10^5 cells/well) and incubated for 30 minutes at 37° C. Following three washes with binding buffer, adherent cells were lysed and quantitated using a fluorometer.
IC50 is defined as the dose required to give 50% inhibition. The lower the IC50 value and the greater the percentage of inhibition, the more efficient the compound is at prevention of cell adhesion. A stands for inhibition in Table 1, and the percent inhibition indicates the inhibition of cell adhesion when compound is included in the assay at a concentration of 100 μM.

pIC50: −log10 of the molar value.

T1 sequence (P13612 34-1032): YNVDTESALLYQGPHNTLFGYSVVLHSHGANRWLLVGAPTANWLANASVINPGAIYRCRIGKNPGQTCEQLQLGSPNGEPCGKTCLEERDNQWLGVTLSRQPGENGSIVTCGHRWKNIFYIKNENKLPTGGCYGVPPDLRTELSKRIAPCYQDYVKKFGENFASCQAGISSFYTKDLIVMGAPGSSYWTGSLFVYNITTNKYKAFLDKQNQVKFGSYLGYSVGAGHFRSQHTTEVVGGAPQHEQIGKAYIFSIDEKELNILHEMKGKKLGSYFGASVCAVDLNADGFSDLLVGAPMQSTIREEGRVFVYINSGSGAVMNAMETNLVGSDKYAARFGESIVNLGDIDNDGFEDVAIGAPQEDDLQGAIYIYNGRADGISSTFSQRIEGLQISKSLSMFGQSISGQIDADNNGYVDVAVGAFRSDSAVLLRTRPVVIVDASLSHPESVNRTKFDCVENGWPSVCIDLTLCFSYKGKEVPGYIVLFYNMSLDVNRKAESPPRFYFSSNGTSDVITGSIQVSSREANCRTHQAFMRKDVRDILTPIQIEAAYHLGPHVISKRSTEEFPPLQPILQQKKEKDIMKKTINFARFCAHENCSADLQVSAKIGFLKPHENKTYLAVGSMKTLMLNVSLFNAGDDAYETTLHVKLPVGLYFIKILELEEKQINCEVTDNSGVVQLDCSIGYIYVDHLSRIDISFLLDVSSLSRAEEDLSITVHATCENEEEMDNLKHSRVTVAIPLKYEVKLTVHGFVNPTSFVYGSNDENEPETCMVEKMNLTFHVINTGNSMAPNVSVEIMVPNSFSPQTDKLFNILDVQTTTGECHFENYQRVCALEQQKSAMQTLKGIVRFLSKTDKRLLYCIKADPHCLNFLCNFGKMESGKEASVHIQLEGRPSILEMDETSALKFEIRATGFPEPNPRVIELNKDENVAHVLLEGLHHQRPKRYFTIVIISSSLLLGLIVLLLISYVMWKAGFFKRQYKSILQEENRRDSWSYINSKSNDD
T1 sequence (P05556 21-798): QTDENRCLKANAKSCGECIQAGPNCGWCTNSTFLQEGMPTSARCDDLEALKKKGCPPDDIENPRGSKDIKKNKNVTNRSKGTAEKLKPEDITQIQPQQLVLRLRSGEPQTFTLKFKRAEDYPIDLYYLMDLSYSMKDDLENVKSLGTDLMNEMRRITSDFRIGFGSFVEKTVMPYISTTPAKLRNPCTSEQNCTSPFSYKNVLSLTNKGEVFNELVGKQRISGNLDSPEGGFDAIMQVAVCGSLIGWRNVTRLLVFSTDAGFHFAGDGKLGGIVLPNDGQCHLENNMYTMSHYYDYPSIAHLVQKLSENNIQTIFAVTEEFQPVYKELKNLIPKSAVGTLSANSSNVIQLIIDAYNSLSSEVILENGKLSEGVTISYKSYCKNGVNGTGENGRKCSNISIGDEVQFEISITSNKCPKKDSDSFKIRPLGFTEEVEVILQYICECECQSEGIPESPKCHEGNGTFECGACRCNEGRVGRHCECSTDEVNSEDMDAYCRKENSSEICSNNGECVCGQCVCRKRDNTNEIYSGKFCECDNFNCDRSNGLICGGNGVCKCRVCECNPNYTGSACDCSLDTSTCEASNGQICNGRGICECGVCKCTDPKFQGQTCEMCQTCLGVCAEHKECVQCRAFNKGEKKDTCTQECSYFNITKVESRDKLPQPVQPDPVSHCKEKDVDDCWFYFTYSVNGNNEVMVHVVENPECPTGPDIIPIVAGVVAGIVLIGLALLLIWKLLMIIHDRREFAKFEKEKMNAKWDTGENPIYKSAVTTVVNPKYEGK

Take `COc1ccc(SC[C@H](CCSC)NC(=O)N[C@@H](CC(=O)O)c2ccc3c(c2)OCO3)cc1` [(3S)-3-(1,3-benzodioxol-5-yl)-3-[({[(1S)-1-{[(4-methoxyphenyl)sulfanyl]methyl}-3-(methylsulfanyl)propyl]amino}carbonyl)amino]propanoic acid]: the inhibition at 100 µM was 100% and the pIC50 is 5.15.

For the compound `CSCC[C@@H](CSc1ccc(NS(=O)(=O)c2ccc(C)cc2)cc1)NC(=O)N[C@@H](CC(=O)O)c1ccc2c(c1)OCO2` [(3S)-3-(1,3-benzodioxol-5-yl)-3-[({[(1S)-1-{[(4-{[(4-methylphenyl)sulfonyl]amino}phenyl)sulfanyl]methyl}-3-(methylsulfanyl)propyl]amino}carbonyl)amino]propanoic acid], the inhibition at 100 µM is 100% and the pIC50 is 6.40.

In the case of `CSCC[C@@H](COc1ccccc1)NC(=O)N[C@@H](CC(=O)O)c1ccc2c(c1)OCO2` [(3S)-3-(1,3-benzodioxol-5-yl)-3-[({[(1S)-3-(methylsulfanyl)-1-(phenoxymethyl)propyl]amino}carbonyl)amino]propanoic acid], the inhibition at 100 µM was 100% and the pIC50 is 4.70.

Consider `CSCC[C@@H](CSc1ccccc1)N(C)C(=O)N[C@@H](CC(=O)O)c1ccc2c(c1)OCO2` [(3S)-3-(1,3-benzodioxol-5-yl)-3-{[(methyl{(1S)-3-(methylsulfanyl)-1-[(phenylsulfanyl)methyl]propyl}amino)carbonyl]amino}propanoic acid], for which the inhibition at 100 µM is 78% and the pIC50 is 4.46.

Take `CCCCC(CSc1ccccc1)OC(=O)N[C@@H](CC(=O)O)c1ccc2c(c1)OCO2` (stereo partly drawn) [(3S)-3-(1,3-benzodioxol-5-yl)-3-{[({1-[(phenylsulfanyl)methyl]pentyl}oxy)carbonyl]amino}propanoic acid]: the inhibition at 100 µM is 100% and the pIC50 was 5.22.

In the case of `O=C(O)C[C@H](NC(=O)NC(CSc1ccccc1)CSc1ccccc1)c1ccc2c(c1)OCO2` [(3S)-3-(1,3-benzodioxol-5-yl)-3-{[({2-(phenylsulfanyl)-1-[(phenylsulfanyl)methyl]ethyl}amino)carbonyl]amino}propanoic acid], the inhibition at 100 µM is 99% and the pIC50 was 5.82.

With `O=C(O)C[C@H](NC(=O)N[C@H](COCc1ccccc1)CSCc1ccccc1)c1ccc2c(c1)OCO2` [(3S)-3-(1,3-benzodioxol-5-yl)-3-{[({(1R)-2-(benzyloxy)-1-[(benzylthio)methyl]ethyl}amino)carbonyl]amino}propanoic acid], the inhibition at 100 µM is 100% and the pIC50 was 6.00.

With `O=C(O)C[C@H](NC(=O)O[C@H](COCc1ccccc1)CSCc1ccccc1)c1ccc2c(c1)OCO2` [(3S)-3-(1,3-benzodioxol-5-yl)-3-{[({(1R)-2-(benzyloxy)-1-[(benzylthio)methyl]ethyl}oxy)carbonyl]amino}propanoic acid], the inhibition at 100 µM is 100% and the pIC50 is 5.00.

On to `CCSC[C@@H](COCc1ccccc1)OC(=O)N[C@@H](CC(=O)O)c1ccc2c(c1)OCO2` [(3S)-3-(1,3-benzodioxol-5-yl)-3-{[({(1R)-2-(benzyloxy)-1-[(ethylthio)methyl]ethyl}oxy)carbonyl]amino}propanoic acid], for which the inhibition at 100 µM is 100% and the pIC50 is 4.92.

Turning to `CCCC[C@@H](CSc1ccccc1)NC(=O)N[C@@H](CC(=O)O)c1ccc2c(c1)OCO2` [(3S)-3-(1,3-benzodioxol-5-yl)-3-{[({(1S)-1-[(phenylsulfanyl)methyl]pentyl}amino)carbonyl]amino}propanoic acid], the inhibition at 100 µM was 100% and the pIC50 was 6.40.

Regarding `CCCC[C@@H](CSc1ccc(NC(=O)Nc2ccccc2C)cc1)OC(=O)N[C@@H](CC(=O)O)c1ccc2c(c1)OCO2` [(3S)-3-(1,3-benzodioxol-5-yl)-3-{[({(1S)-1-[({4-[(2-toluidinocarbonyl)amino]phenyl}thio)methyl]pentyl}oxy)carbonyl]amino}propanoic acid], the inhibition at 100 µM was 100% and the pIC50 is 6.52.

With `O=C(O)C[C@H](NC(=O)N[C@@H](COCc1ccccc1)CSc1ccccc1)c1ccc2c(c1)OCO2` [(3S)-3-(1,3-benzodioxol-5-yl)-3-{[({(1S)-2-(benzyloxy)-1-[(phenylthio)methyl]ethyl}amino)carbonyl]amino}propanoic acid], the inhibition at 100 µM is 100% and the pIC50 is 6.52.

For the compound `O=C(O)C[C@H](NC(=O)N[C@@H](CSCc1ccccc1)CSc1ccccc1)c1ccc2c(c1)OCO2` [(3S)-3-(1,3-benzodioxol-5-yl)-3-{[({(1S)-2-(benzylsulfanyl)-1-[(phenylsulfanyl)methyl]ethyl}amino)carbonyl]amino}propanoic acid], the inhibition at 100 µM was 100% and the pIC50 was 7.70.

As for `O=C(O)C[C@H](NC(=O)O[C@@H](CSCc1ccccc1)CSc1ccccc1)c1ccc2c(c1)OCO2` [(3S)-3-(1,3-benzodioxol-5-yl)-3-{[({(1S)-2-(benzylthio)-1-[(phenylthio)methyl]ethyl}oxy)carbonyl]amino}propanoic acid], the inhibition at 100 µM was 100% and the pIC50 was 5.52.

For the compound `CCSC[C@@H](CSc1ccccc1)NC(=O)N[C@@H](CC(=O)O)c1ccc2c(c1)OCO2` [(3S)-3-(1,3-benzodioxol-5-yl)-3-{[({(1S)-2-(ethylsulfanyl)-1-[(phenylsulfanyl)methyl]ethyl}amino)carbonyl]amino}propanoic acid], the inhibition at 100 µM was 100% and the pIC50 is 7.30.

As to `CCSC[C@@H](CSc1ccccc1)OC(=O)N[C@@H](CC(=O)O)c1ccc2c(c1)OCO2` [(3S)-3-(1,3-benzodioxol-5-yl)-3-{[({(1S)-2-(ethylthio)-1-[(phenylthio)methyl]ethyl}oxy)carbonyl]amino}propanoic acid], the inhibition at 100 µM is 100% and the pIC50 is 6.00.

`CSC[C@@H](CSc1ccccc1)NC(=O)N[C@@H](CC(=O)O)c1ccc2c(c1)OCO2` [(3S)-3-(1,3-benzodioxol-5-yl)-3-{[({(1S)-2-(methylsulfanyl)-1-[(phenylsulfanyl)methyl]ethyl}amino)carbonyl]amino}propanoic acid]: the inhibition at 100 µM was 100% and the pIC50 was 7.00.

As to `CCCCCCCCSC[C@@H](CSc1ccccc1)NC(=O)N[C@@H](CC(=O)O)c1ccc2c(c1)OCO2` [(3S)-3-(1,3-benzodioxol-5-yl)-3-{[({(1S)-2-(octylsulfanyl)-1-[(phenylsulfanyl)methyl]ethyl}amino)carbonyl]amino}propanoic acid], the inhibition at 100 µM is 98% and the pIC50 is 5.30.

For `O=C(O)C[C@H](NC(=O)O[C@@H](COCCc1ccccc1)CSc1ccccc1)c1ccc2c(c1)OCO2` [(3S)-3-(1,3-benzodioxol-5-yl)-3-{[({(1S)-2-(phenethyloxy)-1-[(phenylthio)methyl]ethyl}oxy)carbonyl]amino}propanoic acid], the inhibition at 100 µM is 100% and the pIC50 was 5.40.

`CCCSC[C@@H](CSc1ccccc1)NC(=O)N[C@@H](CC(=O)O)c1ccc2c(c1)OCO2` [(3S)-3-(1,3-benzodioxol-5-yl)-3-{[({(1S)-2-(phenylsulfanyl)-1-[(propylsulfanyl)methyl]ethyl}amino)carbonyl]amino}propanoic acid]: the inhibition at 100 µM was 100% and the pIC50 is 6.30.

Regarding `O=C(O)C[C@H](NC(=O)N[C@@H](CSCCCc1ccccc1)CSc1ccccc1)c1ccc2c(c1)OCO2` [(3S)-3-(1,3-benzodioxol-5-yl)-3-{[({(1S)-2-[(3-phenylpropyl)sulfanyl]-1-[(phenylsulfanyl)methyl]ethyl}amino)carbonyl]amino}propanoic acid], the inhibition at 100 µM is 100% and the pIC50 is 5.70.

In the case of `O=C(O)CSC[C@@H](CSc1ccccc1)NC(=O)N[C@@H](CC(=O)O)c1ccc2c(c1)OCO2` [(3S)-3-(1,3-benzodioxol-5-yl)-3-{[({(1S)-2-[(carboxymethyl)sulfanyl]-1-[(phenylsulfanyl)methyl]ethyl}amino)carbonyl]amino}propanoic acid], the inhibition at 100 µM is 100% and the pIC50 was 5.70.

Regarding `O=C(O)C[C@H](NC(=O)N[C@@H](CSCC1CC1)CSc1ccccc1)c1ccc2c(c1)OCO2` [(3S)-3-(1,3-benzodioxol-5-yl)-3-{[({(1S)-2-[(cyclopropylmethyl)thio]-1-[(phenylthio)methyl]ethyl}amino)carbonyl]amino}propanoic acid], the inhibition at 100 µM was 100% and the pIC50 was 6.70.

`CCOC[C@@H](CSc1ccccc1)OC(=O)N[C@@H](CC(=O)O)c1ccc2c(c1)OCO2` [(3S)-3-(1,3-benzodioxol-5-yl)-3-{[({(1S)-2-ethoxy-1-[(phenylthio)methyl]ethyl}oxy)carbonyl]amino}propanoic acid]: the inhibition at 100 µM was 100% and the pIC50 is 5.30.
